# Where two headings read alike, the source gives them in different places. Marks after values point to notes of the source that are not given here.
# Experiments:
# body weight [1] = test: 10-day Phase I Multiple Ascending Dose; assay type: in vivo, human; conditions: 10-day Phase I MAD; doses giving plasma concentrations comparable to ~20–30% brain CB1R occupancy; AZ data on file
# mCB1R = mCB1R (Mus musculus, UniProt P47746); assay type: biochemical
# hCB1R = hCB1R (Homo sapiens, UniProt P21554); assay type: biochemical
# Sequence of hCB1R (P21554 whole entry): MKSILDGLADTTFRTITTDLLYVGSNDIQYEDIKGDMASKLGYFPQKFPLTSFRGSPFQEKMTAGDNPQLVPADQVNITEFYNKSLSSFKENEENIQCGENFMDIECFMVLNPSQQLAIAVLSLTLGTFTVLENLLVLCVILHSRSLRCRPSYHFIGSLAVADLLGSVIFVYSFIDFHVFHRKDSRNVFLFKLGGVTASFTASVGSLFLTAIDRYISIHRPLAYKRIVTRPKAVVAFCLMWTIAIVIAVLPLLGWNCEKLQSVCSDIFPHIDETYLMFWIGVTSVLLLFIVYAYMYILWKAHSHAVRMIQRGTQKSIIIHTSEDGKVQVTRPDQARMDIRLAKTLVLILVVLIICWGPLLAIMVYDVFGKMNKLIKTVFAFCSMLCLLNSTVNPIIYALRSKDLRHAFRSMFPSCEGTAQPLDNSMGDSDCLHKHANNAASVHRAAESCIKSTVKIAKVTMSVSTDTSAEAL
# body weight [2] = test: Body weight loss in mice on ad lib. 'cafeteria' diet, 3 wks repeated p.o.; assay type: in vivo, mouse; conditions: approximate, vehicle-corrected, AZ data on file
# CB1R [3] = test: PET CB1R occupancy with [11C]SD5024 in striatum
# CB1R [4] = test: Change in [11C]SD5024 binding in pons after CB1R antagonists; assay type: in vivo, cynomolgus monkeys (Macaca fascicularis)
# [5] = cited from earlier work
# [6] = tested on: body weight / suicidality; conditions: ref FDA, 2007, cited from earlier work
# CB1R [7] = conditions: across species, ref Fong et al., 2007, Burns et al., Addy et al., 2008a, Proietto et al., 2010, Aronne et al., Hadcock et al.; cited from earlier work
# CB1R [8] = conditions: binding to CB1R; ref Donohue et al., 2008a,b; cited from earlier work
# [9] = Whole brain uptake of radioligand; assay type: in vivo, cynomolgus monkeys (Macaca fascicularis); conditions: i.v. bolus of radioligand, 42 PET measurements
# Sequence of mCB1R (P47746 whole entry): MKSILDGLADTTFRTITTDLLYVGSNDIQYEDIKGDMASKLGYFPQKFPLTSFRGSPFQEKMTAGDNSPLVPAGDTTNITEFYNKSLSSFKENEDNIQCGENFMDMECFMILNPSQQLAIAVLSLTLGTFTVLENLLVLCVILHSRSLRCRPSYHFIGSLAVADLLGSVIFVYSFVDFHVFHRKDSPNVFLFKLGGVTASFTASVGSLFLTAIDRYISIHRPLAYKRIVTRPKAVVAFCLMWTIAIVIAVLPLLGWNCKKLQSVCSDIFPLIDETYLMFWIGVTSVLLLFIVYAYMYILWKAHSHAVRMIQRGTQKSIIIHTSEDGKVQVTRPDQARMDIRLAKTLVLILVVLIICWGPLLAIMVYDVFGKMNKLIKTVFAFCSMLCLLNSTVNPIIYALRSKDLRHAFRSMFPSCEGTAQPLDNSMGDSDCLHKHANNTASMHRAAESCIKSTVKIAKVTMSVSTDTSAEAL
structure (smiles),measurement,setting,value
"Cc1c(C(=O)NN2CCCCC2)nc(-c2ccc(Cl)cc2Cl)n1-c1ccc(OS(=O)(=O)CCC(F)(F)F)cc1 [AZ compound 1, 4-[2-(2,4-Dichlorophenyl)-5-methyl-4-(piperidin-1-ylcarbamoyl)-1H-imidazol-1-yl]phenyl 3,3,3-trifluoropropane-1-sulfonate]",Effect on body weight,body weight [1],tended to reduce body weight
same,Ki,mCB1R,0.03 ± 0.002 nM
same,Ki,hCB1R,0.19 ± 0.01 nM
same,Maximal in vivo body weight loss (% of baseline),body weight [2],~23–25% of baseline
same,Receptor Occupancy,"CB1R [3]; striatum, 0.03 mg/kg i.v., monkey 1, plasma 0 μmol/L, data for 50–93 min",0.4 ^* %
same,Receptor Occupancy,"CB1R [3]; striatum, 0.3 mg/kg i.v., monkey 1, plasma 0.038 μmol/L, 50–122 min",35%
same,Receptor Occupancy,"CB1R [3]; striatum, 0.3 mg/kg i.v., monkey 2, plasma 0.055 μmol/L, data for 50–93 min",23 ^* %
same,Receptor Occupancy,"CB1R [3]; striatum, 1.0 mg/kg i.v., monkey 2, plasma 0.154 μmol/L, 50–122 min",73%
same,Receptor Occupancy,"CB1R [3]; striatum, 2.0 mg/kg i.v., monkey 3, plasma 0.999 μmol/L, 50–122 min",88%
same,Receptor Occupancy,"CB1R [3]; striatum, 6.0 mg/kg i.v., monkey 3, plasma 2.220 μmol/L, 50–122 min",99%
same,AUC50–122min difference compared to baseline,CB1R [4]; 6.0 mg/kg (highest dose),−20%
"Cc1c2c(n(-c3ccc(Cl)cc3Cl)c1-c1ccc(OS(=O)(=O)CCC(F)(F)F)cc1)CCN(N1CCCCC1)C2=O [AZ compound 2, 4-[1-(2,4-Dichlorophenyl)-3-methyl-4-oxo-5-piperidin-1-yl-4,5,6,7-tetrahydro-1H-pyrrolo[3,2-c]pyridin-2-yl]phenyl 3,3,3-trifluoropropane-1-sulfonate]",Ki,mCB1R,0.02 ± 0.001 nM
same,Ki,hCB1R,0.2 ± 0.01 nM
same,Maximal in vivo body weight loss (% of baseline),body weight [2],~30% of baseline
same,Receptor Occupancy,"CB1R [3]; striatum, 0.06 mg/kg i.v., monkey 2, plasma 0.023 μmol/L, 50–122 min",0.6%
same,Receptor Occupancy,"CB1R [3]; striatum, 0.2 mg/kg i.v., monkey 1, plasma 0.050 μmol/L, 50–122 min",−10%
same,Receptor Occupancy,"CB1R [3]; striatum, 0.2 mg/kg i.v., monkey 4, plasma 0.057 μmol/L, 50–122 min",9.2%
same,Receptor Occupancy,"CB1R [3]; striatum, 0.25 mg/kg i.v., monkey 5, plasma 0.083 μmol/L, 50–122 min",1.4%
same,Receptor Occupancy,"CB1R [3]; striatum, 0.3 mg/kg i.v., monkey 2, plasma 0.143 μmol/L, 50–122 min",35%
same,Receptor Occupancy,"CB1R [3]; striatum, 0.6 mg/kg i.v., monkey 5, plasma 0.252 μmol/L, 50–122 min",64%
same,Receptor Occupancy,"CB1R [3]; striatum, 1.0 mg/kg i.v., monkey 4, plasma 0.401 μmol/L, 50–122 min",69%
same,Receptor Occupancy,"CB1R [3]; striatum, 2.0 mg/kg i.v., monkey 1, plasma […], 50–122 min",78%
same,AUC50–122min difference compared to baseline,CB1R [4]; 2.0 mg/kg (highest dose),−23%
"Cc1c2c(n(-c3ccc(F)cc3Cl)c1-c1ccc(OS(=O)(=O)CCC(F)(F)F)cc1)CCN(N1CCCCC1)C2=O [AZ compound 3, 4-[1-(2-Chloro-4-fluorophenyl)-3-methyl-4-oxo-5-piperidin-1-yl-4,5,6,7-tetrahydro-1H-pyrrolo[3,2-c]pyridin-2-yl]phenyl 3,3,3-trifluoropropane-1-sulfonate]",Ki,mCB1R,0.03 ± 0.002 nM
same,Ki,hCB1R,0.24 ± 0.01 nM
same,Maximal in vivo body weight loss (% of baseline),body weight [2],~30% of baseline
same,Receptor Occupancy,"CB1R [3]; striatum, 0.02 mg/kg i.v., monkey 4, plasma 0.001 μmol/L, 50–122 min",−18%
same,Receptor Occupancy,"CB1R [3]; striatum, 0.06 mg/kg i.v., monkey 3, plasma […], 50–122 min",0.7%
same,Receptor Occupancy,"CB1R [3]; striatum, 0.06 mg/kg i.v., monkey 4, plasma 0.020 μmol/L, 50–122 min",−12%
same,Receptor Occupancy,"CB1R [3]; striatum, 0.2 mg/kg i.v., monkey 4, plasma 0.084 μmol/L, 50–122 min",14%
same,Receptor Occupancy,"CB1R [3]; striatum, 0.4 mg/kg i.v., monkey 3, plasma 0.245 μmol/L, 50–122 min",59%
same,Receptor Occupancy,"CB1R [3]; striatum, 0.6 mg/kg i.v., monkey 4, plasma 0.275 μmol/L, 50–122 min",82%
same,AUC50–122min difference compared to baseline,CB1R [4]; 0.6 mg/kg (highest dose),−23%
"Cc1c(C(=O)NN2CCCCC2)nn(-c2ccc(Cl)cc2Cl)c1-c1ccc(Cl)cc1 [Rimonabant, 5-(4-Chlorophenyl)-1-(2,4-dichloro-phenyl)-4-methyl-N-(piperidin-1-yl)-1H-pyrazole-3-carboxamide]",Protein bound,"[5]; ref FDA, 2007",> 99.9%
same,Maximal in vivo body weight loss (% of baseline),body weight [2],~20% of baseline
same,Suicidality in the clinic,[6]; 5 mg dose vs. selected 20 mg dose,absence of a detectable rise in suicidality
same,Weight loss in the clinic,[6]; 5 mg dose,significant (albeit modest) weight loss
"C[C@H](NC(=O)C(C)(C)Oc1ccc(C(F)(F)F)cn1)[C@@H](Cc1ccc(Cl)cc1)c1cccc(C#N)c1 [Taranabant, N-[(2S,3S)-4-(4-Chlorophenyl)-3-(3-cyanophenyl)-2-butanyl]-2-methyl-2-{[5-(trifluoromethyl)-2-pyridinyl]oxy}propanamide, reference compound]",CB1R occupancy that may be sufficient for appetite- and body weight-reducing efficacy,CB1R [7],10 to 40%
same,Ki,mCB1R,0.01 ± 0.001 nM
same,Protein bound,"[5]; ref Li et al., 2010",> 98%
same,Maximal in vivo body weight loss (% of baseline),body weight [2],~30% of baseline
same,CB1R occupancy at exposures corresponding to those needed for optimal clinical efficacy,"CB1R [3]; non-human primates, typically around",20–30%
same,Receptor Occupancy,"CB1R [3]; striatum, 0.005 mg/kg i.v., monkey 7, plasma 0.002 μmol/L, 50–122 min",1.7%
same,Receptor Occupancy,"CB1R [3]; striatum, 0.015 mg/kg i.v., monkey 7, plasma 0.010 μmol/L, 50–122 min",−3.9%
same,Receptor Occupancy,"CB1R [3]; striatum, 0.05 mg/kg i.v., monkey 1, plasma 0.015 μmol/L, 50–122 min",35%
same,Receptor Occupancy,"CB1R [3]; striatum, 0.2 mg/kg i.v., monkey 1, plasma 0.093 μmol/L, 50–122 min",94%
same,Plasma concentration corresponding to 20–30% CB1R occupancy,"CB1R [3]; striatum, present study",0.01 to 0.02 µmol/L
same,AUC50–122min difference compared to baseline,CB1R [4]; 0.2 mg/kg (highest dose),−29%
N#Cc1ccc(S(=O)(=O)N=C(N)N2CC(c3ccccc3)C(c3ccc(Cl)cc3)=N2)cc1 (stereo not drawn) [[^11C]SD5024],IC50,CB1R [8],2.8 nM
same,Ki,CB1R [8],0.5 nM
same,Peak radioactivity in brain (range),[9],2.6 to 4.2 % ID

# Reference: article PMC4678037 (Neuropharmacology, 2015)
